Laboratory results as given in the supplement of paper PMC10307832.

Experiments:
Assay in all cases: relative viability (nuclei count vs DMSO), 5 days (fraction); higher = more cells survive
A549 = tested on: A549
Summary of the method: (§1)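 Cells from lung cancer lines were seeded into 1536-well plates and, one day later, dosed by pin tool. Treatments were either a single drug or a fixed dose of an anchor drug with five library-drug doses (not always all listed) in √10 steps. After 5 days, nuclei were stained in a one-step fixation (final 0.05% Triton X-100, 1% formaldehyde, 1 ug/ml Hoechst) and counted on 4× images, and relative viability is the treated-to-vehicle nuclei ratio, as the median of duplicate plates.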

LK-2 = tested on: LK-2
Summary of the method: as §1

Calu-6 = tested on: Calu-6
Summary of the method: as §1

NCI-H1703 = tested on: NCI-H1703
Summary of the method: as §1

NCI-H1299 = tested on: NCI-H1299
Summary of the method: as §1

NCI-H1734 = tested on: NCI-H1734
Summary of the method: as §1

CAL-12T = tested on: CAL-12T
Summary of the method: as §1

A-427 = tested on: A-427
Summary of the method: as §1

NCI-H1650 = tested on: NCI-H1650
Summary of the method: as §1

NCI-H2009 = tested on: NCI-H2009
Summary of the method: as §1

UMC-11 = tested on: UMC-11
Summary of the method: as §1

EBC-1 = tested on: EBC-1
Summary of the method: as §1

IA-LM = tested on: IA-LM
Summary of the method: as §1

Nc1ccn([C@@H]2O[C@H](CO)[C@@H](O)[C@@H]2O)c(=O)n1 [Cytarabine] + C[C@@H](Oc1cc(-c2cnn(C3CCNCC3)c2)cnc1N)c1c(Cl)ccc(F)c1Cl [Crizotinib] (partner 1 µM)
relative viability (A549; first compound 0.005 µM): 0.541
relative viability (A549; first compound 0.01581 µM): 0.53
relative viability (A549; first compound 0.05 µM): 0.449
relative viability (A549; first compound 0.1581 µM): 0.0819
relative viability (A549; first compound 0.5 µM): 0.0747
relative viability (LK-2; first compound 0.005 µM): 0.262
relative viability (LK-2; first compound 0.01581 µM): 0.305
relative viability (LK-2; first compound 0.05 µM): 0.208
relative viability (LK-2; first compound 0.1581 µM): 0.196
relative viability (LK-2; first compound 0.5 µM): 0.205
relative viability (Calu-6; first compound 0.005 µM): 0.722
relative viability (Calu-6; first compound 0.01581 µM): 0.706
relative viability (Calu-6; first compound 0.05 µM): 0.623
relative viability (Calu-6; first compound 0.1581 µM): 0.433
relative viability (Calu-6; first compound 0.5 µM): 0.259
relative viability (NCI-H1703; first compound 0.005 µM): 0.484
relative viability (NCI-H1703; first compound 0.01581 µM): 0.375
relative viability (NCI-H1703; first compound 0.05 µM): 0.299
relative viability (NCI-H1703; first compound 0.1581 µM): 0.148
relative viability (NCI-H1703; first compound 0.5 µM): 0.205
relative viability (NCI-H1299; first compound 0.005 µM): 0.956
relative viability (NCI-H1299; first compound 0.01581 µM): 0.99
relative viability (NCI-H1299; first compound 0.05 µM): 1.03
relative viability (NCI-H1299; first compound 0.1581 µM): 0.961
relative viability (NCI-H1299; first compound 0.5 µM): 0.943
relative viability (NCI-H1734; first compound 0.005 µM): 0.473
relative viability (NCI-H1734; first compound 0.01581 µM): 0.326
relative viability (NCI-H1734; first compound 0.05 µM): 0.23
relative viability (NCI-H1734; first compound 0.1581 µM): 0.143
relative viability (NCI-H1734; first compound 0.5 µM): 0.157
relative viability (CAL-12T; first compound 0.005 µM): 0.413
relative viability (CAL-12T; first compound 0.01581 µM): 0.753
relative viability (CAL-12T; first compound 0.05 µM): 0.703
relative viability (CAL-12T; first compound 0.1581 µM): 0.511
relative viability (CAL-12T; first compound 0.5 µM): 0.153
relative viability (A-427; first compound 0.005 µM): 0.605
relative viability (A-427; first compound 0.01581 µM): 0.414
relative viability (A-427; first compound 0.05 µM): 0.149
relative viability (A-427; first compound 0.1581 µM): 0.172
relative viability (A-427; first compound 0.5 µM): 0.173
relative viability (NCI-H1650; first compound 0.005 µM): 0.752
relative viability (NCI-H1650; first compound 0.01581 µM): 1.05
relative viability (NCI-H1650; first compound 0.05 µM): 0.544
relative viability (NCI-H1650; first compound 0.1581 µM): 0.315
relative viability (NCI-H1650; first compound 0.5 µM): 0.188
relative viability (NCI-H2009; first compound 0.005 µM): 1.02
relative viability (NCI-H2009; first compound 0.01581 µM): 1.01
relative viability (NCI-H2009; first compound 0.05 µM): 0.955
relative viability (NCI-H2009; first compound 0.1581 µM): 0.884
relative viability (NCI-H2009; first compound 0.5 µM): 0.298
relative viability (UMC-11; first compound 0.005 µM): 0.454
relative viability (UMC-11; first compound 0.01581 µM): 0.52
relative viability (UMC-11; first compound 0.05 µM): 0.336
relative viability (UMC-11; first compound 0.1581 µM): 0.267
relative viability (UMC-11; first compound 0.5 µM): 0.205
relative viability (EBC-1; first compound 0.01581 µM): 0.171
relative viability (EBC-1; first compound 0.05 µM): 0.178
relative viability (EBC-1; first compound 0.1581 µM): 0.149
relative viability (EBC-1; first compound 0.5 µM): 0.159
relative viability (IA-LM; first compound 0.005 µM): 0.864
relative viability (IA-LM; first compound 0.01581 µM): 0.62
relative viability (IA-LM; first compound 0.05 µM): 0.729
relative viability (IA-LM; first compound 0.1581 µM): 0.414
relative viability (IA-LM; first compound 0.5 µM): 0.121

Cc1sc2c(c1C)C(c1ccc(Cl)cc1)=N[C@@H](CC(=O)OC(C)(C)C)c1nnc(C)n1-2 [JQ1] + CS(=O)(=O)N1CCN(Cc2cc3nc(-c4cccc5[nH]ncc45)nc(N4CCOCC4)c3s2)CC1 [Pictilisib] (partner 1 µM)
relative viability (A549; first compound 0.04 µM): 0.511
relative viability (A549; first compound 0.1265 µM): 0.421
relative viability (A549; first compound 0.4 µM): 0.35
relative viability (A549; first compound 1.265 µM): 0.253
relative viability (A549; first compound 4 µM): 0.185
relative viability (LK-2; first compound 0.04 µM): 0.514
relative viability (LK-2; first compound 0.1265 µM): 0.511
relative viability (LK-2; first compound 0.4 µM): 0.35
relative viability (LK-2; first compound 1.265 µM): 0.223
relative viability (LK-2; first compound 4 µM): 0.226
relative viability (Calu-6; first compound 0.04 µM): 0.972
relative viability (Calu-6; first compound 0.1265 µM): 0.826
relative viability (Calu-6; first compound 0.4 µM): 0.897
relative viability (Calu-6; first compound 1.265 µM): 0.468
relative viability (Calu-6; first compound 4 µM): 0.372
relative viability (NCI-H1703; first compound 0.04 µM): 0.234
relative viability (NCI-H1703; first compound 0.1265 µM): 0.212
relative viability (NCI-H1703; first compound 0.4 µM): 0.238
relative viability (NCI-H1703; first compound 1.265 µM): 0.21
relative viability (NCI-H1703; first compound 4 µM): 0.216
relative viability (NCI-H1299; first compound 0.04 µM): 0.691
relative viability (NCI-H1299; first compound 0.1265 µM): 0.482
relative viability (NCI-H1299; first compound 0.4 µM): 0.219
relative viability (NCI-H1299; first compound 4 µM): 0.104
relative viability (NCI-H1734; first compound 0.04 µM): 0.466
relative viability (NCI-H1734; first compound 0.1265 µM): 0.444
relative viability (NCI-H1734; first compound 0.4 µM): 0.503
relative viability (NCI-H1734; first compound 1.265 µM): 0.296
relative viability (NCI-H1734; first compound 4 µM): 0.327
relative viability (CAL-12T; first compound 0.04 µM): 0.414
relative viability (CAL-12T; first compound 0.4 µM): 0.457
relative viability (CAL-12T; first compound 1.265 µM): 0.293
relative viability (CAL-12T; first compound 4 µM): 0.36
relative viability (A-427; first compound 0.04 µM): 0.81
relative viability (A-427; first compound 0.1265 µM): 0.748
relative viability (A-427; first compound 0.4 µM): 0.674
relative viability (A-427; first compound 1.265 µM): 0.511
relative viability (A-427; first compound 4 µM): 0.465
relative viability (NCI-H1650; first compound 0.04 µM): 0.625
relative viability (NCI-H1650; first compound 0.1265 µM): 0.445
relative viability (NCI-H1650; first compound 0.4 µM): 0.286
relative viability (NCI-H1650; first compound 1.265 µM): 0.122
relative viability (NCI-H1650; first compound 4 µM): 0.169
relative viability (NCI-H2009; first compound 0.04 µM): 0.767
relative viability (NCI-H2009; first compound 0.1265 µM): 0.534
relative viability (NCI-H2009; first compound 0.4 µM): 0.33
relative viability (NCI-H2009; first compound 1.265 µM): 0.205
relative viability (NCI-H2009; first compound 4 µM): 0.245
relative viability (UMC-11; first compound 0.04 µM): 0.724
relative viability (UMC-11; first compound 0.1265 µM): 0.664
relative viability (UMC-11; first compound 0.4 µM): 0.338
relative viability (UMC-11; first compound 1.265 µM): 0.209
relative viability (UMC-11; first compound 4 µM): 0.192
relative viability (EBC-1; first compound 0.04 µM): 0.31
relative viability (EBC-1; first compound 0.1265 µM): 0.245
relative viability (EBC-1; first compound 0.4 µM): 0.15
relative viability (EBC-1; first compound 1.265 µM): 0.11
relative viability (EBC-1; first compound 4 µM): 0.156
relative viability (IA-LM; first compound 0.04 µM): 0.278
relative viability (IA-LM; first compound 0.1265 µM): 0.103
relative viability (IA-LM; first compound 0.4 µM): 0.0998
relative viability (IA-LM; first compound 1.265 µM): 0.0879
relative viability (IA-LM; first compound 4 µM): 0.0786
